Assay [1] relates to peripheral blood mononuclear cells (PBMC). Description: Peripheral blood mononuclear cell (PBMC) assay. Conditions: 1 h with compounds, washed, 15 hour incubation, average of one to four donors. Format: cell-based. Here is the method:
Selected compounds were tested in an in vitro peripheral blood mononuclear cell (PBMC) assay. […] Serially diluted tested compounds were added to wells in 50 μl of cultivation medium and cell were incubated with compounds for 1 h at 37° C. with 5% CO2. Plates with cells were then spun 500 g for 5 minutes and medium was removed. Cells were washed twice with the cell culture medium by the use of centrifugation and gently resuspended in 100 μl medium without compounds. After 15 hour incubation at 37° C. with 5% CO2, the cell culture medium was collected and the levels of interferon-alpha (INF-α), interferon-gamma (INF-γ) and tumor necrosis factor-alpha (TNF-α) were determined with ProcartaPlex Assays (ThermoFisher, Waltham, USA) and MAGPIX System (Merck KGaA, Darmstadt, Germany). […] Values reported are an average of runs from one to four donors.

Assay [2] deals with T1, WT STING (Homo sapiens, UniProt Q86WV6, H232R). The assay is described as follows: 293T WT STING standard reporter assay. The format is cell-based. The arrangement: host or cells: 293T (ATCC CRL-3216), stably transfected, with 4xISRE firefly luciferase reporter. To be noted: 293T wtSTING-FL cells, ISRE firefly luciferase; no digitonin; 7 hours with compounds; 8-point curve. The source says: Two complementary oligonucleotides of the sequence […] […] […] […] […] The oligonucleotides were mixed in equal molar amounts, hybridized, and cleaved by restriction endonucleases HindIII (cat. #. R0104S, NEB, Ipswich, USA) and BglII (cat. #R0144S, NEB, Ipswich, USA). Ultimately, they were ligated into plasmid pGL4.27 (cat. #E6651, Promega, Madison, USA) linearized with the same enzymes. As result the sequence with four ISRE sites was placed upstream of the minimum promoter of firefly luciferase reporter gene.
After 5 minutes incubation at room temperature (RT), 250 μL of the mixture was added dropwise to the cells in one well. Cells were incubated 36 hours at 37° C. with 5% CO2, and then detached with 0.05% Trypsin and 0.22 g/L EDTA (both cat. #L0941, Biowest, Riverside, USA).
Transfected cells were seeded onto poly-D-lysine coated six well plates at density 50,000 cells per 1 cm^2 in DMEM medium with high glucose containing 10% heat inactivated FBS, 30 μg/mL blasticidin (cat. #ant-b1-05, InvivoGen, San Diego, USA), 0.06 mg/ml Penicillin G and 0.1 mg/ml Streptomycin Sulfate (both cat. #. L0018, Biowest, Riverside, USA). The medium was replenished every 3-4 days until visible colonies of cells resistant to blasticidin were formed.
Blasticidin resistant cells stably expressing WT STING were further transfected with […] plasmid following the same procedure as described above. […] Homogeneous culture of stably double transfected cells was prepared by limiting dilution of cells in 96 well plates and wells with cells were selected that originated from a single cell.
The medium was removed next day and three-fold serial dilutions of compounds in 100 μl medium were added to the cells. The plates with cells were incubated for 7 hours at 37° C. with 5% CO2. After 50 μl of the medium was removed, 30 μl of ONE-Glo™ Luciferase Assay System reagent (cat. #E6120, Promega, Madison, USA) was added to each well and luminescence was read on Synergy H1 (Biotek, Winooski, USA).
Target sequence in this assay (Q86WV6 whole entry H232R): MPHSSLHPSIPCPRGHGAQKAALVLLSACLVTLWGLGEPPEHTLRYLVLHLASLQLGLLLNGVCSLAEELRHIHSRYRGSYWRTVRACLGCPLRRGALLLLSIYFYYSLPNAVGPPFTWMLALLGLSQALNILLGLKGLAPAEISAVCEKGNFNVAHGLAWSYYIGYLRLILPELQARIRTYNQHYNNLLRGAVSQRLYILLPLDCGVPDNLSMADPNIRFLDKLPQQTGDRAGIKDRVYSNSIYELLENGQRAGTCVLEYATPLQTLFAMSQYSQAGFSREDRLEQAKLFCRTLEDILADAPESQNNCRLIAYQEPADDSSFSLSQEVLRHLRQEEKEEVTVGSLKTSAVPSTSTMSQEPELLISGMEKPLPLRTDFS

Assay [3] deals with T2, AQ STING (G230A-R293Q) (Homo sapiens, UniProt Q86WV6, G230A/H232R/R293Q).
T2 construct: 8xHis (N, cleaved yes); SUMO (N, cleaved yes); made in house; host or cells: E. coli Rosetta-gami B (DE3)
T2 sequence (Q86WV6 140-343 G230A/H232R/R293Q): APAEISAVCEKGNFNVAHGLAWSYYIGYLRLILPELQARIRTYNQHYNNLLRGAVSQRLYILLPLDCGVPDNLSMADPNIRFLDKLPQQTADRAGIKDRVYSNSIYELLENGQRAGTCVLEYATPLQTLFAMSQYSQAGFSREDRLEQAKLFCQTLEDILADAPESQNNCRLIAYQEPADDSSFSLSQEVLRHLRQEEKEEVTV
Description: Differential scanning fluorimetry (DSF) with AQ STING. The format is binding. Conditions: thermal shift vs apoprotein; 150 μM CDN; truncated human AQ STING 0.1 mg/ml. A digest of the protocol:
(§1)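 […] STING proteins, alone or with CDNs, in triplicate, thermally denatured on a real-time PCR cycler. Denaturing temperatures taken from first-derivative curves; shift = mean Tm of STING–CDN complex minus mean Tm of apoprotein.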
(In general: Differential scanning fluorimetry follows unfolding on heating by fluorescence.)

Assay [4] deals with T1, WT STING. The assay is described as follows: Digitonin assay using 293T wtSTING-FL reporter cells. Format: cell-based. The arrangement: host or cells: 293T (ATCC CRL-3216), stably transfected, with 4xISRE firefly luciferase reporter. To be noted: 293T wtSTING-FL cells, ISRE firefly luciferase; compounds in Digitonin buffer 30 minutes, then 5 hours; 8-point curve.
Target sequence in this assay (Q86WV6 whole entry H232R): as the sequence (Q86WV6 whole entry H232R) above
Assay [5] concerns the target T1, WT STING. The assay is described as follows: Differential scanning fluorimetry (DSF) with WT STING. The format is binding. The arrangement: 8xHis (N, cleaved yes); SUMO (N, cleaved yes); made in house; host or cells: E. coli Rosetta-gami B (DE3). To be noted: thermal shift vs apoprotein; 150 μM CDN; truncated human WT STING 0.1 mg/ml. A digest of the protocol: as §1
Target sequence in this assay (Q86WV6 140-343 H232R): as the sequence (Q86WV6 140-343 G230A/H232R/R293Q) above, with A91G, Q154R counted along it

The mark [6] stands for this setting: interferon-alpha level, read-out: PBMC EC50 (μM) IFN-α.
Setting [7] is: interferon-gamma level, read-out: PBMC EC50 (μM) IFN-γ.
Setting [8] is: tumor necrosis factor-alpha level, read-out: PBMC EC50 (μM) TNF-α.
[9] abbreviates: PBMC, interferon-alpha level, read-out: PBMC EC50 (μM) IFN-α.
The mark [10] stands for this setting: PBMC, interferon-gamma level, read-out: PBMC EC50 (μM) IFN-γ.
The mark [11] stands for this setting: PBMC, tumor necrosis factor-alpha level, read-out: PBMC EC50 (μM) TNF-α.

The values below come from patent US11766447B2, “3′3′-cyclic dinucleotide analogue comprising a cyclopentanyl modified nucleotide as sting modulator” (INSTITUTE OF ORGANIC CHEMISTRY AND BIOCHEMISTRY ASCR, V.V.I., priority 2019, dated 2023).

Read-outs that look alike come from different tables or passages of the source.

With `CC(C)(C)C(=O)OCOP1(=O)OC[C@H]2O[C@@H](n3cnc4c(N)ncnc43)CC2OP(=O)(OCOC(=O)C(C)(C)C)OC[C@H]2C[C@@H](n3cnc4c(N)ncnc43)C(F)C2O1` (stereo partly drawn) [Compound 139b, (((2R,3aS,7aR,9R,10S,10aR,14aR)-2,9-bis(6-amino-9H-purin-9-yl)-10-fluoro-5,12-dioxidodecahydro-2H-cyclopenta[d]furo[3,2-j][1,3,7,9]tetraoxa[2,8]di-phosphacyclododecine-5,12-diyl)bis(oxy))bis(methylene) bis(2,2-dimethylpropanoate)], the half-maximal effective concentration (EC50) – broadly, the midpoint of the concentration-response curve – is 0.3 µM in assay [1] (setting [6]), 0.1 µM in assay [1] (setting [7]), 0.1 µM in assay [1] (setting [8]) and 1 nM in assay [2].
In the case of `CC1(C(=O)OCOP2(=O)OC[C@H]3O[C@@H](n4cnc5c(N)ncnc54)[C@H](F)[C@@H]3OP(=O)(OCOC(=O)C3(C)CCCCC3)OC[C@H]3C[C@@H](n4cnc5c(N)ncnc54)[C@H](F)[C@@H]3O2)CCCCC1` (single isomer, unassigned) [Compound 145a], in assay [2], the 50% effective concentration (EC50) came to 120 nM.
Still for that read-out and setting: for `CCC(C)(C)C(=O)OCOP1(=O)OC[C@H]2O[C@@H](n3cnc4c(N)ncnc43)[C@H](F)[C@@H]2OP(=O)(OCOC(=O)C(C)(C)CC)OC[C@H]2C[C@@H](n3cnc4c(N)ncnc43)[C@H](F)[C@@H]2O1` (single isomer, unassigned) [Compound 144a] the value was 20 nM; for `CC(C)(C)C(=O)OCOP1(=O)OC[C@H]2O[C@@H](n3cnc4c(N)ncnc43)C(F)C2OP(=O)(OCOC(=O)C(C)(C)C)OC[C@H]2C[C@@H](n3cnc4c(N)ncnc43)CC2O1` (single isomer, unassigned) [Compound 137a], 200 nM.
As to `CCCCCCCC(=O)OCOP1(=O)OC[C@H]2O[C@@H](n3cnc4c(N)ncnc43)[C@H](F)[C@@H]2OP(=O)(OCOC(=O)CCCCCCC)OC[C@H]2C[C@@H](n3cnc4c(N)ncnc43)[C@H](F)[C@@H]2O1` (single isomer, unassigned) [Compound 146c], the EC50 in assay [1] (setting [6]) worked out at 0.02 µM; in assay [1] (setting [7]), 0.02 µM; in assay [1] (setting [8]) it was 0.01 µM; in assay [2], 1 nM.
Turning to `CCC(C)(C)C(=O)OCOP1(=O)OC[C@H]2O[C@@H](n3cnc4c(N)ncnc43)[C@H](F)[C@@H]2OP(=O)(OCOC(=O)C(C)(C)CC)OC[C@H]2C[C@@H](n3cnc4c(N)ncnc43)[C@H](F)[C@@H]2O1` (single isomer, unassigned) [Compound 144c], the EC50 is 0.004 µM in assay [1] (setting [9]), 0.003 µM in assay [1] (setting [10]), 0.002 µM in assay [1] (setting [11]) and 1 nM in assay [2].
As for `CCCCCCCC(=O)OCOP1(=O)OC[C@H]2O[C@@H](n3cnc4c(N)ncnc43)[C@H](F)[C@@H]2OP(=O)(OCOC(=O)CCCCCCC)OC[C@H]2C[C@@H](n3cnc4c(N)ncnc43)[C@H](F)[C@@H]2O1` (single isomer, unassigned) [Compound 146b], the EC50 in assay [1] (setting [6]) stood at 0.02 µM; in assay [1] (setting [7]) it was 0.01 µM; in assay [1] (setting [8]) it was 0.01 µM; in assay [2], 0.3 nM.
Take `CC(C)(C)C(=O)OCOP1(=O)OC[C@H]2C[C@@H](n3cnc4c(N)ncnc43)C(F)[C@H]2OP(=O)(OCOC(=O)C(C)(C)C)OC[C@H]2O[C@@H](n3cnc4c(N)ncnc43)[C@@H](F)C2O1` (single isomer, unassigned) [Compound 136b]: in assay [2], the 50% effective concentration (EC50) came out at 60 nM.
Take `CC1(C(=O)OCOP2(=O)OC[C@H]3O[C@@H](n4cnc5c(N)ncnc54)C(F)C3OP(=O)(OCOC(=O)C3(C)CCCCC3)OC[C@H]3C[C@@H](n4cnc5c(N)ncnc54)C(F)C3O2)CCCCC1` (some centres unmarked) [Compound 145c]: the EC50 in assay [1] (setting [9]) is 0.04 µM; in assay [1] (setting [10]), 0.01 µM; in assay [1] (setting [11]), 0.02 µM; in assay [2] it was 6 nM.
Regarding “(((2R,3R,3aR,7aR,9R,10S,10aR,14aR)-2,9-bis(6-amino-9H-purin-9-yl)-3,10-difluoro-12-hydroxy-5,12-dioxidodecahydro-2H-cyclopenta[d]furo[3,2-j][1,3,7,9]tetraoxa[2,8]diphosphacyclododecin-5-yl)oxy)methyl pivalate [Compound 135a]”, in assay [2], the EC50 turned out to be 300 nM.
On to `CC(C)(C)C(=O)OCOP1(=O)OC[C@H]2C[C@@H](n3cnc4c(N)ncnc43)C(F)[C@H]2OP(=O)(OCOC(=O)C(C)(C)C)OC[C@H]2O[C@@H](n3cnc4c(N)ncnc43)[C@@H](F)C2O1` (single isomer, unassigned) [Compound 136c], for which, in assay [2], the EC50 came to 50 nM.
Regarding `CC1(C(=O)OCOP2(=O)OC[C@H]3O[C@@H](n4cnc5c(N)ncnc54)[C@H](F)[C@@H]3OP(=O)(OCOC(=O)C3(C)CCCCC3)OC[C@H]3C[C@@H](n4cnc5c(N)ncnc54)[C@H](F)[C@@H]3O2)CCCCC1` (single isomer, unassigned) [Compound 145b], the EC50 in assay [1] (setting [9]) was found to be 0.007 µM; in assay [1] (setting [10]), 0.002 µM; in assay [1] (setting [11]), 0.006 µM; in assay [2], 1 nM.
For `CC(C)OC(=O)OCOP1(=O)OC[C@H]2O[C@@H](n3cnc4c(N)ncnc43)[C@H](F)[C@@H]2OP(=O)(OCOC(=O)OC(C)C)OC[C@H]2C[C@@H](n3cnc4c(N)ncnc43)[C@H](F)[C@@H]2O1` (single isomer, unassigned) [Compound 143a], in assay [2], the concentration giving a half-maximal response (EC50) was determined as 100 nM.
`CC(C)(C)C(=O)OCOP1(=O)OC[C@H]2O[C@@H](n3cnc4c(N)ncnc43)C(F)C2OP(=O)(OCOC(=O)C(C)(C)C)OC[C@H]2C[C@@H](n3cnc4c(N)ncnc43)CC2O1` (single isomer, unassigned) [Compound 137b]: the 50% effective concentration (EC50) in assay [2] amounted to 90 nM.
With `Nc1ncnc2c1ncn2[C@@H]1O[C@@H]2COP(=O)(O)OC3C(O)[C@H](n4cnc5c(=O)[nH]cnc54)C[C@@H]3COP(=O)(O)OC2C1O` (stereo partly drawn) [Compound 104, 9-((2R,3R,3a5,7aR,9R,10S,10aR,14aR)-2-(6-amino-9H-purin-9-yl)-3,5,10,12-tetrahydroxy-5,12-dioxidodecahydro-2H-cyclopenta[d]furo[3,2-j][1,3,7,9]tetraoxa[2,8]diphosphacyclododecin-9-yl)-1,9-dihydro-6H-purin-6-one], the ΔTm (commonly the change in melting temperature against a reference sample) at 150 µM came to 11.4 °C in assay [3] and 3.4 °C in assay [5]. In assay [4], the EC50 is 200 nM.
